The values below come from patent US11365201B2, “Chlorotonil derivatives” (HELMHOLTZ-ZENTRUM FÜR INFEKTIONSFORSCHUNG GMBH, priority 2017, dated 2022).

Series [1] relates to Plasmodium falciparum. The settings on record: starting parasitemia levels of 0.01, 0.05, 0.5 and […]; cited from earlier work.
Series [2] deals with P. falciparum 3D7 (sensitive strain). The series can be described thus: Antiplasmodial in vitro drug sensitivity assay (HRP2-ELISA). Format: cell-based. As to conditions: Plasmodium falciparum. As for the experimental part:
(§1) Two laboratory strains of P. falciparum, the chloroquine sensitive 3D7 and the multi-resistant Dd2 were kept in continuous culture as previously described (Trager and Jensen 1976). In brief, parasites were kept in complete culture medium (RPMI 1640, 25 mM HEPES, 2 mM L-glutamine, 50 μg/ml gentamicin and 0.5% w/v AlbuMAX) at 37° C., 5% CO2 and 5% oxygen at 5% hematocrit with daily change of medium. Synchronization was performed with sorbitol twice a week (Lambros and Vanderberg 1979).
(§2) In Vitro Drug Sensitivity Assay
(§3) All compounds were dissolved in DMSO at stock dilutions between 25 and 100 mM; the reference drug chloroquine diphosphate (MW: 515.86) was diluted in distilled water and DMSO, respectively. […] Antiplasmodial activity of the different compounds was tested in a drug sensitivity assay against the two laboratory strains using the histidine-rich protein 2 (HRP2) assay as described previously (Noedl 2005). In brief: 96 well plates were pre-coated with the different compounds in a threefold dilution before ring stage parasites were added in complete culture medium at a hematocrit of 1.5% and a parasitemia of 0.05% in a total volume of 225 μl per well. After three days of incubation plates were frozen until analyzed by HRP2-ELISA. All compounds were evaluated in duplicate in at least two independent experiments.
(In an ELISA, binding on a coated surface is turned into a signal by an enzyme label.)

In series [3] the test system is P. falciparum Dd2 (resistant strain). The series is described as above. In kind it is cell-based. As to conditions: Plasmodium falciparum. The protocol: as §1, §2, §3
The nature of series [4]: Determination of water solubility, Method 1 (suspension in tap water, weighing). In kind it is physicochemical. The settings on record: thermodynamic from solid, room temperature, 18 h stirring, triplicates. As for the experimental part: (§4) Determination of Water Solubility
10 mg of compound was suspended in 1 L of tap water and the solution was stirred at room temperature for 18 h. Upon completion, solution was sonicated for another hour, centrifuged and the supernatant was separated from the precipitate. Both aliquots were lyophilized, and weighed. This procedure was performed in triplicates.

Series [5] in a line: Determination of water solubility, Method 2 (HPLC-MS standard curve, saturated solution in water). The settings on record: thermodynamic from solid; saturated solution in water, HPLC-MS standard curve. In kind it is physicochemical. The protocol: as §4
A standard curve with 10 calibration points of the compound of interest is plotted using HPLC-MS and serial dilution. The dilutions and stock solutions were prepared in THF as a solvent. Following the measurements, a saturated solution in water of the compound in study was also measured. Upon plotting the standard curve using the peak areas of the MS peaks, the water samples were plotted along the curve and the solubility was then calculated.

The test system of a further series is B. subtilis DSM-10. The series can be described thus: Antimicrobial assay, MIC by microbroth dilution. In kind it is cell-based. As to conditions: Bacillus subtilis, DSM10; 16 h, cation-adjusted Muller-Hinton broth. As for the experimental part:
(§5) Bacterial strains used in susceptibility assays (minimum inhibitory concentrations, MIC) were either part of our internal strain collection or were purchased form the German Collection of Microorganisms and Cell Cultures (DSMZ). All compounds were prepared as DMSO stocks and MIC values were determined in standard microbroth dilution assays. Overnight cultures of bacteria were diluted in cation-adjusted Muller-Hinton broth (BBL™, BD) and were adjusted to approximately 10^5 cfu/mL. […] Bacteria were grown in the presence of the derivatives in serial dilution for 16 h at their optimal growth temperature. MIC values were determined according to CLSI guidelines (antibiotic concentration at which no visible bacterial growth is observed).
On the technique in general: Dilution methods test growth across graded concentrations, often in twofold steps.

For a further series, the system named is C. glutamicum DSM-20300. The series is described as follows: Antimicrobial assay, MIC by microbroth dilution. In kind it is cell-based. The settings on record: Corynebacterium glutamicum, DSM20300; 16 h, cation-adjusted Muller-Hinton broth. The protocol:
as §5

The subject of another series is S. aureus Newman. The series can be described thus: Antimicrobial assay, MIC by microbroth dilution. The settings on record: Staphylococcus aureus, NEWMAN; 16 h, cation-adjusted Muller-Hinton broth. Format: cell-based. As for the experimental part: as §5
The test system of the next series is E. coli TolC (+PMBN). The series can be described thus: Antimicrobial assay, MIC by microbroth dilution with PMBN. Format: cell-based. The settings on record: 16 h, 3 μg/mL polymyxin B nonapeptide (PMBN) added. The protocol: Bacterial strains used in susceptibility assays (minimum inhibitory concentrations, MIC) were either part of our internal strain collection or were purchased form the German Collection of Microorganisms and Cell Cultures (DSMZ). All compounds were prepared as DMSO stocks and MIC values were determined in standard microbroth dilution assays. Overnight cultures of bacteria were diluted in cation-adjusted Muller-Hinton broth (BBL™, BD) and were adjusted to approximately 10^5 cfu/mL. For the E. coli culture, 3 μg/mL of polymyxin B nonapeptide (PMBN) was added to increase permeability of the outer membrane as chlorotonils were previously shown to not penetrate into Gram-negative cells. Bacteria were grown in the presence of the derivatives in serial dilution for 16 h at their optimal growth temperature. MIC values were determined according to CLSI guidelines (antibiotic concentration at which no visible bacterial growth is observed).

The test system of series [6] is L-929 (murine fibroblasts). The series is described as follows: Cytotoxicity assay (MTT, 5 d). Format: cell-based. As to conditions: Mus musculus, L929, 120 h. As for the experimental part:
Cytotoxicity Assay The murine fibroblast cell line L-929 was obtained from the German Collection of Microorganisms and Cell Cultures (DSMZ) and maintained under conditions recommended by the depositor. Cells were seeded at 6×10^3 cells per well of sterile 96-well plates in 180 μL complete medium and treated with the compounds in serial dilution after 2 h of equilibration. After 5 d, viability was assessed by the MTT method. After 1.5 h incubation with 0.5 mg/mL MTT reagent, cells were washed with PBS and 100 μL of 2-propanol/10 N HCl (250:1) was added. The absorbance at 570 nm was determined on a microplate reader and cell viability was expressed as percentage relative to the respective solvent control. Half-inhibitory concentrations (IC50) were determined by sigmoidal curve fitting.

A further series deals with Gram-positive bacteria. The series is described as follows: Antimicrobial assay, MIC against a range of Gram-positive bacteria (Table 5). Format: cell-based. The settings on record: read-out: MIC. As for the experimental part:
as §5

Series [7] has as its system zebrafish larvae of the AB wildtype line. The series can be described thus: Zebrafish embryo toxicity, maximum tolerated concentration (MTC), AB line. Format: in vivo. The settings on record: AB line, at five dpf, incubation started at two dpf. As for the experimental part:
(§6) Zebrafish Embryo Toxicity
(§7) The maximum tolerated concentration (MTC) was determined on zebrafish larvae of the AB wildtype line and the TLF wild type line. Larvae were placed into a 96-well plate (one larva per well) and incubated in a solution at different concentrations (100, 50, 25, 10, 1 μM) of ChA, ChA-Epo2, ChB or ChB-Epo at two days post fertilization (dpf) for AB and in a solution at different concentrations of ChA (100, 50 μM) ChA-Epo2 (25, 10, 1 μM), ChB (100, 50 μM) or ChB-Epo (100, 50, 25 μM) at one dpf for TLF. Five zebrafish larvae were used per condition. The incubated embryos were kept in compound solutions at 28° C. until five dpf and monitored daily by microscopy. The final MTC result was recorded at five dpf. Compound solutions were prepared in the larvae medium Danieau's. Additionally a solution of 0.5% DMSO in Danieau's was used as vehicle control and Danieau's alone as a negative control.

Series [8] relates to zebrafish larvae of the TLF wild type line. The series is described as follows: Zebrafish embryo toxicity, maximum tolerated concentration (MTC), TLF line. Format: in vivo. As to conditions: at five dpf, incubation started at one dpf. As for the experimental part:
as §6, §7

The test system of series [9] is chloroquine-sensitive laboratory strains of Plasmodium falciparum. As to conditions: read-out: mean IC50, chloroquine-sensitive laboratory strains of Plasmodium falciparum; in vitro, first screening; cited from earlier work.
Series [10] deals with chloroquine-resistant laboratory strains of Plasmodium falciparum. The settings on record: read-out: mean IC50, chloroquine-resistant laboratory strains of Plasmodium falciparum; in vitro, first screening; cited from earlier work.
Series [11] concerns clinical isolates from Gabon. The settings on record: read-out: median IC50, clinical isolates from Gabon; in vitro; cited from earlier work.
Series [12] concerns Plasmodium falciparum. The settings on record: cited from earlier work.
For series [13], the system named is mature stage (stage IV-V) gametocytes. As to conditions: read-out: mean IC50, gametocytocidal activity, ATP bioluminescence; cited from earlier work.
For series [14] the following is noted: mice; cited from earlier work.
[15] abbreviates: 3D7, read-out: IC50 against P. falciparum 3D7.
Setting [16] is: DD2, read-out: IC50 against P. falciparum Dd2.

For orientation: IC50 means the concentration needed to halve the response being measured. One may read the solubility as how much of the substance goes into solution per volume. A high value points to a readily soluble substance. One may read the MIC as the lowest concentration that inhibits growth of the organism.

Molecules are shown by their SMILES. Converted amounts (≈) assume the structure as drawn. Where two headings read alike, the source gives them in different places.

For `C[C@H]1[C@H](OC(=O)CCC(=O)O)O[C@@H]2O[C@@]3(C)CC[C@H]4[C@H](C)CC[C@@H]1[C@@]24OO3` [artesunate], the “Inoculum effect: difference in IC50 between lowest and highest parasitemia” value in the series on Plasmodium falciparum [1] is 8.8 fold.

Consider `CCN(CC)CCCC(C)Nc1ccnc2cc(Cl)ccc12` (stereo not shown) [Chloroquine, reference compound], for which the values for the IC50 in series [2] (setting [15]) and in series [3] (setting [16]) were 7.4 nM and 292 nM, respectively. The “Inoculum effect: difference in IC50 between lowest and highest parasitemia” value with Plasmodium falciparum [1] is listed as 5.6 fold.

For `C[C@@H]1C(=O)O[C@@H](C)/C=C/C=C\[C@@H](C)[C@@H]2C=C[C@@H]3C[C@@]4(C)O[C@H]4[C@@H](C)[C@H]3[C@@H]2C(=O)C(Cl)(Cl)C1=O` [ChA-Epo2], in series [4], the concentration in solution (solubility at 18 h) came to 14 µg/mL (≈ 28.3 µM). Further, in series [5], the solubility was found to be 10.3 µg/mL (≈ 20.8 µM). For the same compound, the MIC was found to be 0.025 µg/mL (≈ 0.0505 µM) in the series with B. subtilis DSM-10; 0.05 µg/mL (≈ 0.101 µM) in the series with C. glutamicum DSM-20300; 0.025 µg/mL (≈ 0.0505 µM) against S. aureus Newman; 0.8 µg/mL (≈ 1.61 µM) with Gram-positive bacteria (Enterococcus faecalis, E. faecalis 20478); 1.6 µg/mL (≈ 3.23 µM) in the series with Gram-positive bacteria (Enterococcus faecalis, E. faecalis 29212); 3.2 µg/mL (≈ 6.46 µM) in the series on Gram-positive bacteria (Enterococcus faecium, E. faecium 20477). The MIC in the series with Gram-positive bacteria (Enterococcus faecium, VRE, E. faecium 17050 (VRE)) turned out to be 0.4 µg/mL (≈ 0.807 µM); in the series on Gram-positive bacteria (Micrococcus luteus, M. luteus), 0.025 µg/mL (≈ 0.0505 µM); in the series with Gram-positive bacteria (Mycolicibacterium smegmatis, M. smegmatis), 0.003 µg/mL (≈ 0.00606 µM); with Gram-positive bacteria (Priestia megaterium, B. megaterium), 0.00125 µg/mL (≈ 0.00252 µM); with Gram-positive bacteria (Staphylococcus epidermidis, S. epidermidis 28765), 0.2 µg/mL (≈ 0.404 µM); with Gram-positive bacteria (Streptococcus pneumoniae, PRSP, S. pneumoniae 11865 (PRSP)), 8 µg/mL (≈ 16.1 µM). Also, the MIC in the series on Gram-positive bacteria (Streptococcus pneumoniae, S. pneumoniae 20566) worked out at 0.2 µg/mL (≈ 0.404 µM). For the same compound, the “MIC E. coli TolC (+PMBN)” value in the series with E. coli TolC (+PMBN) came to 0.1 µg/mL. The IC50 stood at 2100 nM in series [6]; 51.3 nM in series [2] (P. falciparum 3D7 (sensitive strain), read-out: IC50 against P. falciparum 3D7); 87.1 nM in [3] (P. falciparum Dd2 (resistant strain), read-out: IC50 against P. falciparum Dd2). Moreover, the “Observations noted on fish larvae” value in series [7] (10 μM) is listed as “died”; in series [7] (25 μM), “died”; in [7] (50 μM), “died”; in series [7] (100 μM) it was “died”; in [8] (10 μM), 4 delayed in development; in [8] (25 μM), 1 died, 4 delayed in. In addition, the “MTC (maximum tolerated concentration)” value in series [7] and in series [8] was 1 µM in each case.

For `CC1=C[C@@H](C)C2C3C(=O)C(Cl)(Cl)C(=O)[C@H](C)C(=O)O[C@@H](C)/C=C/C=C\[C@@H](C)[C@@H]3C=C[C@@H]2C1` (stereo partly shown) [Chlorotonil A (ChA), Chlorotonil A], the concentration in solution in series [4] (solubility at 18 h) came to 3 µg/mL (≈ 6.26 µM). The concentration in solution in series [5] (solubility) was 1.8 µg/mL (≈ 3.75 µM). In addition, the “MIC E. coli TolC (+PMBN)” value in the series with E. coli TolC (+PMBN) is 0.4 µg/mL. The IC50 in series [6] is 1100 nM; in [2] (setting [15]) it was 18.7 nM; in series [3] (setting [16]), 20.7 nM; in series [9], 9 nM; in series [10], 18 nM; in [11], 15.2 nM. Moreover, the IC50 in series [13] is 29.6 nM. For the same compound, the “Development of resistant parasites in vitro by drug pressure” value with Plasmodium falciparum [12] is “not possible to develop resistant parasites in vitro by drug pressure”. Further, the oral availability entry in series [14] is “orally available”.
